Patent US20110003393A1, “SYSTEMS AND METHODS FOR STUDYING INFLUENZA” (President and Fellows of Harvard College, priority 2007, published 2011)

Columns and labels:
[1] = target: T1, M2 proton channel of the influenza A virus (Influenza A virus, UniProt P0DOF5, C19S/C50S); format: binding, influenza A virus (A/Udorn)
[2] = target: T1, M2 proton channel of the influenza A virus; format: binding, influenza A virus (A/Udorn); settings: pH 7.5, 40 mM rimantadine, 0.75 mM M2(18-60) monomer, 300 mM DHPC, four NOESY spectra

CC(N)C12CC3CC(CC(C3)C1)C2 (stereo not drawn) [rimantadine]
affinity for the open state of the channel ([1]; pH 6): much lower affinity, if any, for the open state
effect of binding on channel conformation ([1]; pH 7): stabilizes the closed conformation
location of binding site from protein-rimantadine NOEs [2]: between adjacent helices at the C-terminal end of the TM domain near the Trp41 gate, on the membrane side of the channel
